Reference: the NIST ThermoML archive (doi:10.1021/je300603d)
Numbers after ± are expanded uncertainties.

Test: mn = molality of the nth substance listed, in mol/kg
Settings: 101 kPa, Liquid; for electrical conductivity: Alternating current cell with electrodes; for viscosity: Falling or rolling sphere viscometry; for mass density: Vibrating tube method

F[B-](F)(F)F.[Na+] [sodium tetrafluoroborate] + CCCCn1cc[n+](C)c1.F[B-](F)(F)F
Settings | electrical conductivity [S/m] | mass density [kg/m3] | viscosity [mPa·s]
238.15 K, m1 = 0.058 | 0.00083 ± 1e-05 | – | –
238.15 K, m1 = 0.1159 | 0.00077 ± 1e-05 | – | –
238.15 K, m1 = 0.1739 | 0.00071 ± 1e-05 | – | –
258.15 K, m1 = 0.058 | 0.0211 ± 0.0001 | – | –
258.15 K, m1 = 0.1159 | 0.0201 ± 0.0001 | – | –
258.15 K, m1 = 0.1739 | 0.0188 ± 0.0003 | – | –
278.15 K, m1 = 0.0273 | – | 1218 ± 0.4 | –
278.15 K, m1 = 0.054 | – | 1219.4 ± 0.4 | –
278.15 K, m1 = 0.058 | 0.1075 ± 0.0005 | 1219.2 ± 0.4 | 400.2 ± 28
278.15 K, m1 = 0.0676 | – | 1220.7 ± 0.4 | –
278.15 K, m1 = 0.0903 | – | 1221.3 ± 0.4 | –
278.15 K, m1 = 0.1069 | – | 1222.4 ± 0.4 | –
278.15 K, m1 = 0.1159 | 0.103 ± 0.001 | 1222.8 ± 0.4 | 421.4 ± 30
278.15 K, m1 = 0.1377 | – | 1224.3 ± 0.4 | –
278.15 K, m1 = 0.1739 | 0.0986 ± 0.0007 | 1226.2 ± 0.4 | 454.8 ± 34
288.15 K, m1 = 0.0273 | – | 1210.7 ± 0.4 | –
288.15 K, m1 = 0.054 | – | 1212.2 ± 0.4 | –
288.15 K, m1 = 0.058 | – | 1212.1 ± 0.4 | 204.4 ± 9.7
288.15 K, m1 = 0.0676 | – | 1213.4 ± 0.4 | –
288.15 K, m1 = 0.0903 | – | 1214 ± 0.4 | –
288.15 K, m1 = 0.1069 | – | 1215.1 ± 0.4 | –
288.15 K, m1 = 0.1159 | – | 1215.5 ± 0.4 | 215.5 ± 11
288.15 K, m1 = 0.1377 | – | 1217 ± 0.4 | –
288.15 K, m1 = 0.1739 | – | 1218.9 ± 0.4 | 232.6 ± 12
298.15 K, m1 = 0.0273 | – | 1203.5 ± 0.4 | –
298.15 K, m1 = 0.054 | – | 1204.9 ± 0.4 | –
298.15 K, m1 = 0.058 | 0.341 ± 0.002 | 1205 ± 0.4 | 115.5 ± 3.3
298.15 K, m1 = 0.0676 | – | 1206.1 ± 0.4 | –
298.15 K, m1 = 0.0903 | – | 1206.8 ± 0.4 | –
298.15 K, m1 = 0.1069 | – | 1207.9 ± 0.4 | –
298.15 K, m1 = 0.1159 | 0.328 ± 0.002 | 1208.3 ± 0.4 | 121.4 ± 3.7
298.15 K, m1 = 0.1377 | – | 1209.8 ± 0.4 | –
298.15 K, m1 = 0.1739 | 0.316 ± 0.002 | 1211.6 ± 0.4 | 130.4 ± 4.3
308.15 K, m1 = 0.0273 | – | 1196.3 ± 0.4 | –
308.15 K, m1 = 0.054 | – | 1197.7 ± 0.4 | –
308.15 K, m1 = 0.058 | – | 1198 ± 0.4 | 70.66 ± 0.9
308.15 K, m1 = 0.0676 | – | 1199 ± 0.4 | –
308.15 K, m1 = 0.0903 | – | 1199.6 ± 0.4 | –
308.15 K, m1 = 0.1069 | – | 1200.7 ± 0.4 | –
308.15 K, m1 = 0.1159 | – | 1201.1 ± 0.4 | 74.52 ± 1.1
308.15 K, m1 = 0.1377 | – | 1202.6 ± 0.4 | –
308.15 K, m1 = 0.1739 | – | 1204.4 ± 0.4 | 79.37 ± 1.3
318.15 K, m1 = 0.0273 | – | 1189.2 ± 0.4 | –
318.15 K, m1 = 0.054 | – | 1190.7 ± 0.4 | –
318.15 K, m1 = 0.058 | 0.794 ± 0.004 | 1190.9 ± 0.4 | 46.1 ± 0.46
318.15 K, m1 = 0.0676 | – | 1191.9 ± 0.4 | –
318.15 K, m1 = 0.0903 | – | 1192.5 ± 0.4 | –
318.15 K, m1 = 0.1069 | – | 1193.6 ± 0.4 | –
318.15 K, m1 = 0.1159 | 0.769 ± 0.004 | 1194 ± 0.4 | 48.94 ± 0.49
318.15 K, m1 = 0.1377 | – | 1195.5 ± 0.4 | –
318.15 K, m1 = 0.1739 | 0.745 ± 0.004 | 1197.3 ± 0.4 | 51.72 ± 0.38
328.15 K, m1 = 0.0273 | – | 1182.2 ± 0.4 | –
328.15 K, m1 = 0.054 | – | 1183.6 ± 0.4 | –
328.15 K, m1 = 0.058 | – | 1183.9 ± 0.4 | 31.69 ± 0.32
328.15 K, m1 = 0.0676 | – | 1184.9 ± 0.4 | –
328.15 K, m1 = 0.0903 | – | 1185.5 ± 0.4 | –
328.15 K, m1 = 0.1069 | – | 1186.6 ± 0.4 | –
328.15 K, m1 = 0.1159 | – | 1187 ± 0.4 | 33.98 ± 0.34
328.15 K, m1 = 0.1377 | – | 1188.4 ± 0.4 | –
328.15 K, m1 = 0.1739 | – | 1190.3 ± 0.4 | 35.69 ± 0.36
338.15 K, m1 = 0.0273 | – | 1175.3 ± 0.4 | –
338.15 K, m1 = 0.054 | – | 1177 ± 0.4 | –
338.15 K, m1 = 0.058 | 1.5 ± 0.008 | 1176.8 ± 0.4 | 22.75 ± 0.23
338.15 K, m1 = 0.0676 | – | 1177.9 ± 0.4 | –
338.15 K, m1 = 0.0903 | – | 1178.6 ± 0.4 | –
338.15 K, m1 = 0.1069 | – | 1179.6 ± 0.4 | –
338.15 K, m1 = 0.1159 | 1.464 ± 0.007 | 1180 ± 0.4 | 23.85 ± 0.24
338.15 K, m1 = 0.1377 | – | 1181.5 ± 0.4 | –
338.15 K, m1 = 0.1739 | 1.425 ± 0.007 | 1183.3 ± 0.4 | 23.94 ± 0.24
348.15 K, m1 = 0.0273 | – | 1168.4 ± 0.4 | –
348.15 K, m1 = 0.054 | – | 1169.8 ± 0.4 | –
348.15 K, m1 = 0.058 | – | 1169.8 ± 0.4 | 16.93 ± 0.17
348.15 K, m1 = 0.0676 | – | 1171 ± 0.4 | –
348.15 K, m1 = 0.0903 | – | 1171.7 ± 0.4 | –
348.15 K, m1 = 0.1069 | – | 1172.7 ± 0.4 | –
348.15 K, m1 = 0.1159 | – | 1173.1 ± 0.4 | 17.63 ± 0.18
348.15 K, m1 = 0.1377 | – | 1174.6 ± 0.4 | –
348.15 K, m1 = 0.1739 | – | 1176.4 ± 0.4 | 17.97 ± 0.18
358.15 K, m1 = 0.0273 | – | 1161.6 ± 0.4 | –
358.15 K, m1 = 0.054 | – | 1163 ± 0.4 | –
358.15 K, m1 = 0.058 | 2.47 ± 0.01 | 1162.7 ± 0.4 | 13 ± 0.13
358.15 K, m1 = 0.0676 | – | 1164.2 ± 0.4 | –
358.15 K, m1 = 0.0903 | – | 1164.8 ± 0.4 | –
358.15 K, m1 = 0.1069 | – | 1165.9 ± 0.4 | –
358.15 K, m1 = 0.1159 | 2.4 ± 0.01 | 1166.3 ± 0.4 | 13.53 ± 0.14
358.15 K, m1 = 0.1377 | – | 1167.7 ± 0.4 | –
358.15 K, m1 = 0.1739 | 2.35 ± 0.01 | 1169.6 ± 0.4 | 14.01 ± 0.14
378.15 K, m1 = 0.058 | 3.66 ± 0.02 | – | –
378.15 K, m1 = 0.1159 | 3.57 ± 0.02 | – | –
378.15 K, m1 = 0.1739 | 3.5 ± 0.02 | – | –
398.15 K, m1 = 0.058 | 5.04 ± 0.03 | – | –
398.15 K, m1 = 0.1159 | 4.93 ± 0.03 | – | –
398.15 K, m1 = 0.1739 | 4.84 ± 0.02 | – | –
418.15 K, m1 = 0.058 | 6.58 ± 0.03 | – | –
418.15 K, m1 = 0.1159 | 6.45 ± 0.03 | – | –
418.15 K, m1 = 0.1739 | 6.35 ± 0.03 | – | –
438.15 K, m1 = 0.058 | 8.24 ± 0.04 | – | –
438.15 K, m1 = 0.1159 | 8.11 ± 0.04 | – | –
438.15 K, m1 = 0.1739 | 7.98 ± 0.04 | – | –
458.15 K, m1 = 0.058 | 10 ± 0.05 | – | –
458.15 K, m1 = 0.1159 | 9.85 ± 0.05 | – | –
458.15 K, m1 = 0.1739 | 9.7 ± 0.05 | – | –
